Consider 12 molecules from US4575497A, “3, 3", 4"-Tri-O-acylspiramycin I” (Kyowa Hakko Kogyo Co., Ltd, priority 1983, dated 1986).

Test [1] relates to Staphylococcus aureus KB210. Put plainly: MIC against Staphylococcus aureus KB210 (A). The format is cell-based. Particulars: Heart infusion agar (pH 7.0). The text has this: (§1) The minimum inhibitory concentration (MIC) of Compound (I) is shown in Table 4 in comparison with that of spiramycin I.
(§2) Minimum inhibitory concentration (MIC, μ g/ml)
(§3) Remark: medium used: Heart infusion agar (pH 7.0)
A: Staphylococcus aureus KB210

Test [2] relates to Escherichia coli KB213. Description: MIC against Escherichia coli KB213 (F). The class given is cell-based. Particulars: Heart infusion agar (pH 7.0).
Excerpt: as §1, §2, §3
F: Escherichia coli KB213

In test [3] the test system is Staphylococcus aureus KB199. Description: MIC against Staphylococcus aureus KB199 (B). As to conditions: Heart infusion agar (pH 7.0). The format is cell-based.
Excerpt: as §1, §2, §3
B: Staphylococcus aureus KB199

The test system of test [4] is Streptococcus pneumoniae Type III. Description: Infection-healing effect, mice protection test (Test Example). As to conditions: for Number of survived mice out of 10 mice: 60 mg/kg in 0.3% CMC, orally just after i.p. inoculation (1.1×10^2 cfu/mouse), 7th day; for therapeutic effect in an infection-healing test in mice: Streptococcus pneumoniae Type III, compared with acetylspiramycin and 3, 3", 4"-tri-O-acetylspiramycin I. The class given is in vivo. The protocol: A test example of the therapeutic effect of Compound (I) in experimental test mice protection test will be given below:
Animal: ddY-strain male mice, 19±lg, one group consisting of ten mice.
Test bacterium: Streptococcus pneumoniae Type III, Inoculation rate: 1.1×10^2 cfu/mouse.
The predetermined amount of the precultured test bacteria was inoculated via i.p.
Medicament administration: 60 mg/kg of each of the medicaments was suspended in 0.3% CMC, and orally administered just after the inoculation of bacteria.

The test system of test [5] is Micrococcus ruteus KB212. Description: MIC against Micrococcus ruteus KB212 (E). The format is cell-based. As to conditions: Heart infusion agar (pH 7.0).
Excerpt: as §1, §2, §3
E: Micrococcus ruteus KB212

Test [6] has as its system Bacillus cereus KB143. Description: MIC against Bacillus cereus KB143 (D). The format is cell-based. Particulars: Heart infusion agar (pH 7.0).
Excerpt: as §1, §2, §3
D: Bacillus cereus KB143

The test system of test [7] is Bacillus subtilis KB211. Description: MIC against Bacillus subtilis KB211 (C). The class given is cell-based. Particulars: Heart infusion agar (pH 7.0).
Excerpt: as §1, §2, §3
C: Bacillus subtilis KB211

Test [8] concerns Klebsiella pneumoniae KB214. Put plainly: MIC against Klebsiella pneumoniae KB214 (G). The format is cell-based. As to conditions: Heart infusion agar (pH 7.0).
Excerpt: as §1, §2, §3
G: Klebsiella pneumoniae KB214

For test [9] the following is noted: background literature, in words; cited from earlier work.

Some results are limits rather than exact numbers.

For `CCCC(=O)OC1(C)CC(OC2C(C)OC(OC3C(CC=O)CC(C)C(OC4CCC(N(C)C)C(C)O4)C=CC=CCC(C)OC(=O)CC(OC(C)=O)C3OC)C(O)C2N(C)C)OC(C)C1OC(C)=O` (centres unmarked) [Compound 6, 3, 4"-di-O-acetyl-3"-O-butyrylspiramycin I], the “Minimum inhibitory concentration (MIC)” value in test [1] is 6.25 μ g/ml; in test [2], above 100 μ g/ml; in [3], above 100 μ g/ml; in [5], 0.2 μ g/ml; in test [6], 1.56 μ g/ml; in test [7], 3.12 μ g/ml. Besides, in test [8], the “Minimum inhibitory concentration (MIC)” value is recorded as above 100 μ g/ml. For the same molecule, the “Number of survived mice out of 10 mice” value in test [4] is 10 mice out of 10 mice. Besides, the “therapeutic effect in an infection-healing test in mice” value (shortened to “therapeutic effect”) in test [4] is “more excellent therapeutic effect than acetylspiramycin and 3, 3", 4"-tri-O-acetylspiramycin I”.
In the case of `CCC(=O)OC1CC(=O)OC(C)CC=CC=CC(OC2CCC(N(C)C)C(C)O2)C(C)CC(CC=O)C(OC2OC(C)C(OC3CC(C)(OC(=O)CC)C(OC(=O)CC)C(C)O3)C(N(C)C)C2O)C1OC` (centres unmarked) [Compound 4, 3, 3", 4"-tri-O-propionylspiramycin I], the “Minimum inhibitory concentration (MIC)” value is 1.56 μ g/ml in [1]; above 100 μ g/ml in test [2]; above 100 μ g/ml in [3]; below 0.1 μ g/ml in test [5]; 1.56 μ g/ml in [6]; 1.56 μ g/ml in test [7]. Further, the “Minimum inhibitory concentration (MIC)” value in test [8] is given as above 100 μ g/ml. Further, the “Number of survived mice out of 10 mice” value in test [4] was 10 mice out of 10 mice. The “therapeutic effect” value in [4] was “more excellent therapeutic effect than acetylspiramycin and 3, 3", 4"-tri-O-acetylspiramycin I”.
For `CCC(=O)OC1CC(=O)OC(C)CC=CC=CC(OC2CCC(N(C)C)C(C)O2)C(C)CC(CC=O)C(OC2OC(C)C(OC3CC(C)(OC(C)=O)C(OC(=O)CC)C(C)O3)C(N(C)C)C2O)C1OC` (centres unmarked) [Compound 8, 3"-O-acetyl-3, 4"-di-O-propionylspiramycin I], the “Minimum inhibitory concentration (MIC)” value is reported as 3.12 μ g/ml in [1]; above 100 μ g/ml in [2]; above 100 μ g/ml in test [3]; 0.2 μ g/ml in test [5]; 3.12 μ g/ml in test [6]; 3.12 μ g/ml in test [7]. Also, the “Minimum inhibitory concentration (MIC)” value in test [8] is recorded as above 100 μ g/ml. Also, in test [4], the “Number of survived mice out of 10 mice” value is 10 mice out of 10 mice. In test [4], the “therapeutic effect” value was “more excellent therapeutic effect than acetylspiramycin and 3, 3", 4"-tri-O-acetylspiramycin I”.
Take `CCCC(=O)O[C@H]1[C@H](C)O[C@@H](O[C@H]2[C@H](N(C)C)[C@@H](O)[C@H](O[C@H]3[C@@H](CC=O)C[C@@H](C)[C@@H](O)/C=C/C=C/C[C@@H](C)OC(=O)C[C@@H](O)[C@@H]3OC)O[C@@H]2C)C[C@@]1(C)OC(=O)CC` [3"-O-propionyl compound of leucomycin A5]: the “in vivo activity compared with starting compounds” value in test [9] was “better in vivo activity”.
Turning to `CCCC(=O)OC1C(C)OC(OC2C(C)OC(OC3C(CC=O)CC(C)C(OC4CCC(N(C)C)C(C)O4)C=CC=CCC(C)OC(=O)CC(OC(=O)CC)C3OC)C(O)C2N(C)C)CC1(C)OC(=O)CC` (centres unmarked) [Compound 9, 3, 3"-di-O-propionyl-4"-O-butyrylspiramycin I], the “Minimum inhibitory concentration (MIC)” value in test [1] is 3.12 μ g/ml; in [2], above 100 μ g/ml; in test [3], above 100 μ g/ml; in test [5], 0.2 μ g/ml; in [6], 3.12 μ g/ml; in test [7] it was 3.12 μ g/ml. Further, the “Minimum inhibitory concentration (MIC)” value in test [8] was above 100 μ g/ml. Moreover, the “Number of survived mice out of 10 mice” value in test [4] is on record as 8 mice out of 10 mice. Further, the “therapeutic effect” value in [4] was “more excellent therapeutic effect than acetylspiramycin and 3, 3", 4"-tri-O-acetylspiramycin I”.
For `CCC(=O)OC1CC(=O)OC(C)CC=CC=CC(OC2CCC(N(C)C)C(C)O2)C(C)CC(CC=O)C(OC2OC(C)C(OC3CC(C)(OC(=O)CC)C(OC(C)=O)C(C)O3)C(N(C)C)C2O)C1OC` (centres unmarked) [Compound 3, 3,3"-di-O-propionyl-4"-O-acetylspiramycin I], the “Minimum inhibitory concentration (MIC)” value is recorded as 3.12 μ g/ml in test [1]; above 100 μ g/ml in test [2]; above 100 μ g/ml in test [3]; below 0.1 μ g/ml in [5]; 3.12 μ g/ml in test [6]; 3.12 μ g/ml in [7]. The “Minimum inhibitory concentration (MIC)” value in test [8] is above 100 μ g/ml. Further, the “Number of survived mice out of 10 mice” value in test [4] is 5 mice out of 10 mice.
As for `CCC(=O)OC1(C)CC(OC2C(C)OC(OC3C(CC=O)CC(C)C(OC4CCC(N(C)C)C(C)O4)C=CC=CCC(C)OC(=O)CC(OC(C)=O)C3OC)C(O)C2N(C)C)OC(C)C1OC(C)=O` (centres unmarked) [Compound 5, 3, 4"-di-O-acetyl-3"-O-propionylspiramycin I], the “Minimum inhibitory concentration (MIC)” value was 3.12 μ g/ml in test [1]; above 100 μ g/ml in test [2]; above 100 μ g/ml in test [3]; below 0.1 μ g/ml in test [5]; 1.56 μ g/ml in test [6]; 3.12 μ g/ml in test [7]. For the same molecule, in [8], the “Minimum inhibitory concentration (MIC)” value was above 100 μ g/ml. Also, in [4], the “Number of survived mice out of 10 mice” value was 3 mice out of 10 mice.
On to `CO[C@@H]1[C@@H](O[C@@H]2O[C@H](C)[C@@H](O[C@H]3C[C@@](C)(O)[C@@H](O)[C@H](C)O3)[C@H](N(C)C)[C@H]2O)[C@@H](CC=O)C[C@@H](C)[C@@H](O[C@H]2CC[C@H](N(C)C)[C@@H](C)O2)/C=C/C=C/C[C@@H](C)OC(=O)C[C@H]1O` [SPMI, Spiramycin I], for which the “Minimum inhibitory concentration (MIC)” value in test [1] is given as 1.56 μ g/ml; in [2], 100 μ g/ml; in test [3], above 100 μ g/ml; in [5] it was below 0.1 μ g/ml; in test [6] it was 1.56 μ g/ml; in test [7], 0.78 μ g/ml. Moreover, the “Minimum inhibitory concentration (MIC)” value in test [8] is given as 100 μ g/ml. The “Number of survived mice out of 10 mice” value in test [4] is given as 0 mice out of 10 mice.
Turning to `CCCC(=O)OC1(C)CC(OC2C(C)OC(OC3C(CC=O)CC(C)C(OC4CCC(N(C)C)C(C)O4)C=CC=CCC(C)OC(=O)CC(OC(=O)CC)C3OC)C(O)C2N(C)C)OC(C)C1OC(=O)CC` (centres unmarked) [Compound 7, 3, 4"-di-O-propionyl-3"-O-butyrylspiramycin I], the “Minimum inhibitory concentration (MIC)” value is 3.12 μ g/ml in [1]; above 100 μ g/ml in [2]; above 100 μ g/ml in test [3]; below 0.1 μ g/ml in [5]; 1.56 μ g/ml in [6]; 1.56 μ g/ml in test [7]. Also, the “Minimum inhibitory concentration (MIC)” value in test [8] is on record as above 100 μ g/ml. The “Number of survived mice out of 10 mice” value in test [4] was 5 mice out of 10 mice.
Regarding `CCC(=O)OC1C(C)OC(OC2C(C)OC(OC3C(CC=O)CC(C)C(OC4CCC(N(C)C)C(C)O4)C=CC=CCC(C)OC(=O)CC(OC(C)=O)C3OC)C(O)C2N(C)C)CC1(C)OC(C)=O` (centres unmarked) [Compound 1, 3, 3"-di-O-acetyl-4"-O-propionylspiramycin I], the “Minimum inhibitory concentration (MIC)” value in [1] was 3.12 μ g/ml; in [2] it was above 100 μ g/ml; in test [3], above 100 μ g/ml; in [5], below 0.1 μ g/ml; in test [6], 3.12 μ g/ml; in [7] it was 1.56 μ g/ml. The “Minimum inhibitory concentration (MIC)” value in test [8] is on record as above 100 μ g/ml. In test [4], the “Number of survived mice out of 10 mice” value is recorded as 5 mice out of 10 mice.
On to “3", 9-di-O-acetyl compound of midecamycin”, for which the “in vivo activity compared with starting compounds” value in test [9] is given as “better in vivo activity”.
`CCCC(=O)OC1C(C)OC(OC2C(C)OC(OC3C(CC=O)CC(C)C(OC4CCC(N(C)C)C(C)O4)C=CC=CCC(C)OC(=O)CC(OC(C)=O)C3OC)C(O)C2N(C)C)CC1(C)OC(C)=O` (centres unmarked) [Compound 2, 3, 3"-di-O-acetyl-4"-O-butyrylspiramycin I]: the “Minimum inhibitory concentration (MIC)” value is 1.56 μ g/ml in test [1]; above 100 μ g/ml in [2]; above 100 μ g/ml in [3]; below 0.1 μ g/ml in test [5]; 1.56 μ g/ml in test [6]; 1.56 μ g/ml in test [7]. The “Minimum inhibitory concentration (MIC)” value in test [8] is on record as 100 μ g/ml. In addition, in test [4], the “Number of survived mice out of 10 mice” value is on record as 5 mice out of 10 mice.
